Results on 19 molecules are retold here after ChEMBL document CHEMBL4428137, “Development of a Potent and Selective HDAC8 Inhibitor” (ACS Med Chem Lett, 2016).

Each structure is given as a SMILES string. Activity calls are given as the source filed them. No cut-off for these calls is given here.

One experiment has as its target T1, Histone deacetylase 8 (Homo sapiens, UniProt Q9BY41).
T1 sequence (Q9BY41 whole entry): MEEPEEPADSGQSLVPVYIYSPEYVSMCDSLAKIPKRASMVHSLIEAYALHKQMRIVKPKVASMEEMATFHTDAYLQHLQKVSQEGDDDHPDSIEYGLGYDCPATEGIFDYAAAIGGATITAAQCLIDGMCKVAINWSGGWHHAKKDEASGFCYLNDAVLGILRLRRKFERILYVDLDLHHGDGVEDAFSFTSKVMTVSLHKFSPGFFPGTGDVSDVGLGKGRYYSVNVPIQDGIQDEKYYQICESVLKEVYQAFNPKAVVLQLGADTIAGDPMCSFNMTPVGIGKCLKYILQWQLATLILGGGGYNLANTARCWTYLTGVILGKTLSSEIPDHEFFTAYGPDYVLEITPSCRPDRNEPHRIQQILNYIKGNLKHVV
Nature of the experiment: (§1) Inhibition of HDAC8 (unknown origin) using fluorophore-conjugated substrate by fluorescence assay.

Another experiment addresses T2, Histone deacetylase 7 (Homo sapiens, UniProt Q8WUI4).
T2 sequence (Q8WUI4 whole entry): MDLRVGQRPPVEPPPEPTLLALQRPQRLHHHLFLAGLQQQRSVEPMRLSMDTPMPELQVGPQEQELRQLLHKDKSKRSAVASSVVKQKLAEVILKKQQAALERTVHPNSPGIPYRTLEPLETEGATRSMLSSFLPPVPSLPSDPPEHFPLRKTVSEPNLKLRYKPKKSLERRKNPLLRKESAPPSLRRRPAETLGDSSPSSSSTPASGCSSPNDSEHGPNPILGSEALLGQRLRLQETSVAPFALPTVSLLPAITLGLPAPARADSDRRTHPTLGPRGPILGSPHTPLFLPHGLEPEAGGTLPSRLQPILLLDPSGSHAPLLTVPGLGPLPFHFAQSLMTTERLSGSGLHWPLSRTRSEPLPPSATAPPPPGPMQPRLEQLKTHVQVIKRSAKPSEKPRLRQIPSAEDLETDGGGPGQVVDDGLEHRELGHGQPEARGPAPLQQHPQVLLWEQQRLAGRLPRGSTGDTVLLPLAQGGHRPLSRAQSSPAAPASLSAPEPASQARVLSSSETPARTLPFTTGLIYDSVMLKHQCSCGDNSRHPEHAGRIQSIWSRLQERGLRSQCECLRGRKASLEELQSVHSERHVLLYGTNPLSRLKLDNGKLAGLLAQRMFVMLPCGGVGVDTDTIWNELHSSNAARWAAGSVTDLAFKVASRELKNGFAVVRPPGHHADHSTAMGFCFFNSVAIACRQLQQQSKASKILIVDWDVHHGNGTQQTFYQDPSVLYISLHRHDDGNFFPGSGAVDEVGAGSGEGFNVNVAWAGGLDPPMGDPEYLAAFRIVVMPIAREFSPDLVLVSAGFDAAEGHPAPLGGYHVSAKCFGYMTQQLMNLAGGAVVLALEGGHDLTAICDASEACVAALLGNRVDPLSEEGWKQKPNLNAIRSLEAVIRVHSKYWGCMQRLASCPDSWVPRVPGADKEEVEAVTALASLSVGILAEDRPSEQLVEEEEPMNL
Nature of the experiment: (§2) Inhibition of HDAC7 (unknown origin).

The target of another experiment is Histone deacetylase 2 (Homo sapiens, UniProt Q92769). In words: Inhibition of recombinant full length human HDAC2 expressed in sf9 cells using fluorophore-conjugated substrate by fluorescence assay.
For the next experiment, the target named is Histone deacetylase 5 (Homo sapiens, UniProt Q9UQL6). In words: Inhibition of HDAC5 (unknown origin).
A further experiment has as its target Histone deacetylase 9 (Homo sapiens, UniProt Q9UKV0). Nature of the experiment: Inhibition of HDAC9 (unknown origin).
The target in another experiment is Histone deacetylase 3 (Homo sapiens, UniProt O15379). In words: Inhibition of recombinant full length human C-terminal His-tagged HDAC3 expressed in sf9 cells co-expressing human N-terminal GST-tagged NCOR2 (395 to 489 residues) using fluorophore-conjugated substrate by fluorescence assay.
In a further experiment the target is Histone deacetylase 4 (Homo sapiens, UniProt P56524). In words: Inhibition of HDAC4 (unknown origin).
Experiment [1] has as its target T3, Protein deacetylase HDAC6 (Homo sapiens, UniProt Q9UBN7).
T3 sequence (Q9UBN7 whole entry): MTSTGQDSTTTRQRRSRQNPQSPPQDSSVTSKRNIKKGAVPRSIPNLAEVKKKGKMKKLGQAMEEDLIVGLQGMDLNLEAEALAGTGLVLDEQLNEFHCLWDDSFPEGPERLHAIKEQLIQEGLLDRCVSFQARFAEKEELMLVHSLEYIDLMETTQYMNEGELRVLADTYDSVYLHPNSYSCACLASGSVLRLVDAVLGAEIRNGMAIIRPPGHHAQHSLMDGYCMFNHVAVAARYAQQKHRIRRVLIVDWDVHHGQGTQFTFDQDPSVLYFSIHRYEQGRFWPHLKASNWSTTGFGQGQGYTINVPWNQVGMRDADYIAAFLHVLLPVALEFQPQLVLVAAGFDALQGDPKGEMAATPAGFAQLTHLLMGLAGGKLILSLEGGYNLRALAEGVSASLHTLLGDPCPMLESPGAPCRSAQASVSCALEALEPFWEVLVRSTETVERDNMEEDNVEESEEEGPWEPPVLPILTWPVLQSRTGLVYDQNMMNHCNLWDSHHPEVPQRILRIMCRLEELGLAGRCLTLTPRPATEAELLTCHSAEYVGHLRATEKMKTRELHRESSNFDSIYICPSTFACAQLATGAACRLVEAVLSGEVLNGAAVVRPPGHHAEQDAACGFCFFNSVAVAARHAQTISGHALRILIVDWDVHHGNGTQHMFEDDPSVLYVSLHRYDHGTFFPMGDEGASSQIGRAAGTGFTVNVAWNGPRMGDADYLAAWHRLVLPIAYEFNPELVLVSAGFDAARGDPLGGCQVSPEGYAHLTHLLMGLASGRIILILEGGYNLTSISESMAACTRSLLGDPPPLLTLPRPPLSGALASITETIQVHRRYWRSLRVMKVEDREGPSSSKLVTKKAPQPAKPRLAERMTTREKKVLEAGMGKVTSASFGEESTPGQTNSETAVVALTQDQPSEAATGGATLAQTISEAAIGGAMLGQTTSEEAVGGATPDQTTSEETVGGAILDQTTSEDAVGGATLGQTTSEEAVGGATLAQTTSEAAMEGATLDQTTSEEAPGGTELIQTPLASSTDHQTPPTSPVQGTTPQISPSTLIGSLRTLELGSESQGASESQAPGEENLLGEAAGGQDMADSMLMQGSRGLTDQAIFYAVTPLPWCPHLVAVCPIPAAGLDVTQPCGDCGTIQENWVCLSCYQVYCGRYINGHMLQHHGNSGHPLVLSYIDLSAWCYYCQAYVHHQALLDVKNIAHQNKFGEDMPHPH
Nature of the experiment: (§3) Inhibition of recombinant full length human HDAC6 expressed in sf9 cells using fluorophore-conjugated substrate by fluorescence assay.

The next experiment deals with Histone deacetylase 1 (Homo sapiens, UniProt Q13547). Nature of the experiment: Inhibition of recombinant full length human C-terminal FLAG/His-tagged HDAC1 expressed in baculovirus expression system using fluorophore-conjugated substrate by fluorescence assay.
The target of experiment [2] is T4, Histone deacetylase 8 (Homo sapiens) (UniProt Q9BY41).
T4 sequence (whole entry): T1 sequence (Q9BY41 whole entry)
Described as §1.

The target of experiment [3] is T5, Histone deacetylase 7 (Homo sapiens) (UniProt Q8WUI4).
T5 sequence (whole entry): T2 sequence (Q8WUI4 whole entry)
The description is as §2.

Experiment [4] addresses T6, Protein deacetylase HDAC6 (Homo sapiens) (UniProt Q9UBN7).
T6 sequence (whole entry): T3 sequence (Q9UBN7 whole entry)
The experiment is described as §3.

Sequence of Histone deacetylase 4 (P56524 whole entry): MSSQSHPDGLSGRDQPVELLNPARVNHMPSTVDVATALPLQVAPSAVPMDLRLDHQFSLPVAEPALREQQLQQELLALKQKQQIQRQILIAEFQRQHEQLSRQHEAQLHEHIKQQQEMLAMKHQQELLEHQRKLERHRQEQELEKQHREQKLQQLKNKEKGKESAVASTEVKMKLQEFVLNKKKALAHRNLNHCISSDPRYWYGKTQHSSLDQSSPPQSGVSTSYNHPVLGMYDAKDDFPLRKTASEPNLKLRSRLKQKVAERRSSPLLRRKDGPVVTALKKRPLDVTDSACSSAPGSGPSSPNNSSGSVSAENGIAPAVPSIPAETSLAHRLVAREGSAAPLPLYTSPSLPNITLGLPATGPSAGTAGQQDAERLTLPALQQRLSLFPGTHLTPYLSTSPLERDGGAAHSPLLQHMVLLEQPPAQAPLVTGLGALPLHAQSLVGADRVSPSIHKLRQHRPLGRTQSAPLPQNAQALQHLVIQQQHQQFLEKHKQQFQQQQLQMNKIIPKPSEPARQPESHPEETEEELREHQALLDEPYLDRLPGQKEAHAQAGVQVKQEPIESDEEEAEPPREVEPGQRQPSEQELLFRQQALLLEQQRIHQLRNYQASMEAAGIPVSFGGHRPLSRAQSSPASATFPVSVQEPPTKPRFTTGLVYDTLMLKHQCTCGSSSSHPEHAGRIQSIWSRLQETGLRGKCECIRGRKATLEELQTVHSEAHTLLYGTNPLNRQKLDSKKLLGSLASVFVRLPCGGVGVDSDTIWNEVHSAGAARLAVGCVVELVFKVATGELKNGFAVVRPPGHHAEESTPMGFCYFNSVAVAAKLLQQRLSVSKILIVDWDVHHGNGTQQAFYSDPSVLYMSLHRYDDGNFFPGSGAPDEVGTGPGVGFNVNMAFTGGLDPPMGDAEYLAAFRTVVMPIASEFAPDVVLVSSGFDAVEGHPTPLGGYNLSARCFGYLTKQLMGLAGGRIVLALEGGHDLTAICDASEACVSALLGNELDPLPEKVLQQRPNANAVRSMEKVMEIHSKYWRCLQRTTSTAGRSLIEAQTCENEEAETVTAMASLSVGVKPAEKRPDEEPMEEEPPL
Sequence of Histone deacetylase 3 (O15379 whole entry, the tested form may be a part): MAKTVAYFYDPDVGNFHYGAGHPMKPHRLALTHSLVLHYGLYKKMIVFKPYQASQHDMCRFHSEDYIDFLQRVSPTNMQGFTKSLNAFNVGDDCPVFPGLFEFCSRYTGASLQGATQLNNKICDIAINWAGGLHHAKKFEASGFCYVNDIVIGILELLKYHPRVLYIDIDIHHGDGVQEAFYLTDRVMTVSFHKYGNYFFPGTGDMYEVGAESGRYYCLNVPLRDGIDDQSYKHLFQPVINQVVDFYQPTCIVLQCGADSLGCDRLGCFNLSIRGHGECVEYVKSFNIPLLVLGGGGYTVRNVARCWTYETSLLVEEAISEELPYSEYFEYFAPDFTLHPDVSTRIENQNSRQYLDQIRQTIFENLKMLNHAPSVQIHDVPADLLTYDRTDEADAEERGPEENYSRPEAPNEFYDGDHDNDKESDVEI
Sequence of Histone deacetylase 9 (Q9UKV0 whole entry, the tested form may be a part): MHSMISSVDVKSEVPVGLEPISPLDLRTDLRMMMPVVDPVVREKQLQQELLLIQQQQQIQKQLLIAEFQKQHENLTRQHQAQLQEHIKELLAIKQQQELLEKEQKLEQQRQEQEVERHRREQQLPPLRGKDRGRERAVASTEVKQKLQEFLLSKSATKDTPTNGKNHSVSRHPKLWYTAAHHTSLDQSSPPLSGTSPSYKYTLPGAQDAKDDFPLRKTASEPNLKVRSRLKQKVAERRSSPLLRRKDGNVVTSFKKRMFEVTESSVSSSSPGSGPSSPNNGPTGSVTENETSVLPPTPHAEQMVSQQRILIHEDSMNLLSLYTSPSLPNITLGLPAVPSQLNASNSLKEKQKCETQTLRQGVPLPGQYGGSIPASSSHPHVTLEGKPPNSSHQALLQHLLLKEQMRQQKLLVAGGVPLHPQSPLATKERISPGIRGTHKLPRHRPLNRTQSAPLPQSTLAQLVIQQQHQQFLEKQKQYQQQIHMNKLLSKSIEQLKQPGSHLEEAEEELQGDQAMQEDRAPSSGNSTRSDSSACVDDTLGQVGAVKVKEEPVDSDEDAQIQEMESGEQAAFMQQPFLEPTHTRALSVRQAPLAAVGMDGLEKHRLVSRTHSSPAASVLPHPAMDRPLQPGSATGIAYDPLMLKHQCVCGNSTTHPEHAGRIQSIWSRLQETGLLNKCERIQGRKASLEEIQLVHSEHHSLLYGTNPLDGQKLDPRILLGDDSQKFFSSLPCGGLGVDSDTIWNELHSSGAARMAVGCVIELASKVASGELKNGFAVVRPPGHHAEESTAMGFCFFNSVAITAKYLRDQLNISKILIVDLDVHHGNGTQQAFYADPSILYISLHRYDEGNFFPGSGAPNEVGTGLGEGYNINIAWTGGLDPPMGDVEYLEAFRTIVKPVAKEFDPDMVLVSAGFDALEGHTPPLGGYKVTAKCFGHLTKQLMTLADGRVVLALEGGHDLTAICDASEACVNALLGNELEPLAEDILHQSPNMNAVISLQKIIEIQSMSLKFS
Sequence of Histone deacetylase 1 (Q13547 whole entry): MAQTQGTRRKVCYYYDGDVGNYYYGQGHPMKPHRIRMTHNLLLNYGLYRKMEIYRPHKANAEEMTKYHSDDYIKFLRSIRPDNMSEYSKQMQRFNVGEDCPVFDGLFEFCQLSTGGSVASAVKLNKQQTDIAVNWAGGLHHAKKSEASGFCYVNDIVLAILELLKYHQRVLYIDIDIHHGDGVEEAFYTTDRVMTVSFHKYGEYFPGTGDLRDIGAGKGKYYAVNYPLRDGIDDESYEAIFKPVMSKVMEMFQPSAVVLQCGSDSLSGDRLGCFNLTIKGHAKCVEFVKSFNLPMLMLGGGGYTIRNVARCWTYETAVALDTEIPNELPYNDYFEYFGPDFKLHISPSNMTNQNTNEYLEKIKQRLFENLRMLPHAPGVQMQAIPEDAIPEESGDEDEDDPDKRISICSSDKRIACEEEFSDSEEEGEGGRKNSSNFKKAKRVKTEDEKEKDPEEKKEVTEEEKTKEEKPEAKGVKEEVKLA
Sequence of Histone deacetylase 5 (Q9UQL6 whole entry): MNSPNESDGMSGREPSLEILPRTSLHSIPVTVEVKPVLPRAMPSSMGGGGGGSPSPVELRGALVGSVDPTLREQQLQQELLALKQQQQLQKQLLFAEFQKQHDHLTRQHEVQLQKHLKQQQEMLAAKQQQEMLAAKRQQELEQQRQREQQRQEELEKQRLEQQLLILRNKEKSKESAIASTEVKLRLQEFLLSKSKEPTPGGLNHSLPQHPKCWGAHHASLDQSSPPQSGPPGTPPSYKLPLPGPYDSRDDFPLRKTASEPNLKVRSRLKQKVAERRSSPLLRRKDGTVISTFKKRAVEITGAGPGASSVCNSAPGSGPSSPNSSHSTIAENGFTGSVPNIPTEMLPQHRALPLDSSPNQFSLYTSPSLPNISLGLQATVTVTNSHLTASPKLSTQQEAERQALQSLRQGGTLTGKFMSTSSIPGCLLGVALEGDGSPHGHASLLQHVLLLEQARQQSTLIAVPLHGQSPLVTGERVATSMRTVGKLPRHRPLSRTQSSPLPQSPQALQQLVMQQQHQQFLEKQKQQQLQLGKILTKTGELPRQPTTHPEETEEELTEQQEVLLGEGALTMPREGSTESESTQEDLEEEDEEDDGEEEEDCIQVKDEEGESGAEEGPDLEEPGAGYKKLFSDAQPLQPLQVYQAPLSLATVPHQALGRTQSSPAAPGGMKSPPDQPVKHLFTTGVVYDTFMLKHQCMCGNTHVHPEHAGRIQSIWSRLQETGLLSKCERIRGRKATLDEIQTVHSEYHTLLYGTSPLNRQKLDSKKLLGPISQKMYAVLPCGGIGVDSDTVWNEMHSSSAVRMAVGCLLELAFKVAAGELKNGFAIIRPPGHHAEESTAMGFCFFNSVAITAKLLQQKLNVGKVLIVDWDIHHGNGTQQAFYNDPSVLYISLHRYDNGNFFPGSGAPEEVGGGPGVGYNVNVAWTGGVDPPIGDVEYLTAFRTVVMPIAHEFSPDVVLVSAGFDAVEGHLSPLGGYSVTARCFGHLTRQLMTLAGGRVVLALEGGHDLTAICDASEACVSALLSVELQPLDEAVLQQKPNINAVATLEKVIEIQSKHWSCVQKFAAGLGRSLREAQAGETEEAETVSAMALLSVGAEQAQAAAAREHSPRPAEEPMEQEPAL
Sequence of Histone deacetylase 2 (Q92769 whole entry): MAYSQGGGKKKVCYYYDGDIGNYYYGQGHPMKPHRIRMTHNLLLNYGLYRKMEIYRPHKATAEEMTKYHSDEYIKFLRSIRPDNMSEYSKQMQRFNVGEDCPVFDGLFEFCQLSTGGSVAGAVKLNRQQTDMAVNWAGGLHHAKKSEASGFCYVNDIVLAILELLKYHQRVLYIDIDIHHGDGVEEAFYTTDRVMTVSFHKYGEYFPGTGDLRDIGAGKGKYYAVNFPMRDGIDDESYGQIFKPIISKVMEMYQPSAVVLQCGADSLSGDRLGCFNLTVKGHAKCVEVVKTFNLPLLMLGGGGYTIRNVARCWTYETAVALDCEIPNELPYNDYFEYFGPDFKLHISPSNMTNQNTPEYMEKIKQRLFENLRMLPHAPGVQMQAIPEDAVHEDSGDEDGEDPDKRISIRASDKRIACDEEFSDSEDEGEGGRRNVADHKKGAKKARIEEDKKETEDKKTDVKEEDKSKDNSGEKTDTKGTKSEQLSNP

For the molecule `CCc1ccc(C#Cc2c(-c3ccccc3)nnn2[C@@H](Cc2ccccc2)C(=O)NO)cc1`, at Histone deacetylase 8, the IC50 (commonly the concentration that gives 50% inhibition) was determined as 1.5 µM.

On Histone deacetylase 8, `COc1cc(OC)cc(-c2nnn([C@@H](Cc3ccccc3)C(=O)NO)c2C#CC2CC2)c1` returned an IC50 of 0.003 µM.

Turning to `O=C(NO)[C@H](Cc1ccccc1)n1nnc(-c2ccccc2)c1C#Cc1ccccc1`, the IC50 was more than 20 µM against Histone deacetylase 7; more than 20 µM on Histone deacetylase 2; 0.01 µM against Histone deacetylase 8; more than 20 µM against Histone deacetylase 5; more than 20 µM on Histone deacetylase 9; more than 20 µM at Histone deacetylase 3. For the same molecule, the half-inhibitory concentration (IC50) against Histone deacetylase 4 was more than 20 µM; in experiment [1], 3.6 µM; on Histone deacetylase 1, more than 20 µM.

At Histone deacetylase 8, `O=C(NO)[C@H](Cc1ccccc1)n1nnc(-c2ccccc2)c1C#Cc1ccc(-c2ccccc2)cc1` gave an IC50 of 9.1 µM.

For `O=C(NO)[C@H](Cc1ccccc1)n1nnc(-c2ccsc2)c1C#CC1CC1`, 0.004 µM corresponded to half-maximal inhibition on Histone deacetylase 8 (IC50).

Consider `O=C(NO)[C@H](Cc1ccccc1)n1nnc(-c2ccccc2)c1C#CC1CC1`, for which the 50% inhibitory concentration (IC50) at Histone deacetylase 7 was more than 20 µM; on Histone deacetylase 2 it was more than 20 µM; against Histone deacetylase 8 it was 0.0008 µM; on Histone deacetylase 5 it was more than 20 µM; against Histone deacetylase 9, more than 20 µM; on Histone deacetylase 3, more than 20 µM. The IC50 at Histone deacetylase 4 is more than 20 µM; in experiment [1], 1.2 µM; on Histone deacetylase 1, 4.3 µM.

Consider `O=C(NO)[C@H](Cc1ccccc1)n1nnc(-c2ccccc2)c1/C=C/C1CC1`, for which the inhibition entry in experiment [2] was “inactive”.

On to `CC(C)[C@@H](C(=O)NO)n1nnc(-c2ccccc2)c1C#Cc1ccccc1`, for which inhibition on Histone deacetylase 8 was half-maximal at 2.3 µM (IC50).

As to `CNC(=O)[C@H](Cc1ccccc1)n1nnc(-c2ccccc2)c1C#Cc1ccccc1`, the inhibition result (in [3]; at Histone deacetylase 2; in experiment [2]; at Histone deacetylase 5; on Histone deacetylase 9; on Histone deacetylase 3) was “inactive” throughout. For the same molecule, the inhibition result (on Histone deacetylase 4; in [4]; at Histone deacetylase 1) was “inactive” throughout.

As to `O=C(NO)[C@H](Cc1c[nH]c2ccccc12)n1nnc(-c2ccccc2)c1C#CC1CC1`, the IC50 against Histone deacetylase 8 is 0.007 µM.

With `O=C(NO)[C@@H](Cc1ccccc1)n1nnc(-c2ccccc2)c1C#Cc1ccccc1`, the inhibition result (in experiment [3]; on Histone deacetylase 2; in experiment [2]; at Histone deacetylase 5; at Histone deacetylase 9; on Histone deacetylase 3) was “inactive” in each case. Moreover, the inhibition entry (on Histone deacetylase 4; in experiment [4]; on Histone deacetylase 1) was “inactive” each time.

At Histone deacetylase 8, `CC(C)(C)c1ccc(-c2nnn([C@@H](Cc3ccccc3)C(=O)NO)c2C#CC2CC2)cc1` came in with an IC50 of 0.133 µM.

With `O=C(O)[C@H](Cc1ccccc1)n1nnc(-c2ccccc2)c1C#Cc1ccccc1`, the inhibition result (in [3]; on Histone deacetylase 2; in experiment [2]; on Histone deacetylase 5; on Histone deacetylase 9; at Histone deacetylase 3) was “inactive” in each case. In addition, the inhibition result (on Histone deacetylase 4; in experiment [4]; on Histone deacetylase 1) was “inactive” throughout.

As for `O=C(NO)[C@H](Cc1ccccc1)n1nnc(-c2ccccc2)c1CCC1CC1`, the inhibition result in experiment [2] was “inactive”.

Molecule `O=C(NO)[C@H](Cc1ccccc1)n1nnc(-c2cccc(Cl)c2)c1C#CC1CC1` returned an IC50 against Histone deacetylase 8 of 0.008 µM.

The molecule `CCCCCc1c(-c2ccccc2)nnn1[C@@H](Cc1ccccc1)C(=O)NO` returned an IC50 at Histone deacetylase 8 of 0.16 µM.

With `COC(=O)[C@H](Cc1ccccc1)n1nnc(-c2ccccc2)c1C#Cc1ccccc1`, the inhibition entry (in experiment [3]; on Histone deacetylase 2; in experiment [2]; on Histone deacetylase 5; on Histone deacetylase 9; on Histone deacetylase 3) was “inactive” each time. Moreover, the inhibition result (at Histone deacetylase 4; in experiment [4]; at Histone deacetylase 1) was “inactive” throughout.

For the molecule `O=C(NO)[C@H](Cc1ccccc1)n1cc(-c2ccccc2)nn1`, the inhibition result (in experiment [3]; at Histone deacetylase 2; in [2]; at Histone deacetylase 5; on Histone deacetylase 9; on Histone deacetylase 3) was “inactive” throughout. Further, the inhibition result (on Histone deacetylase 4; in experiment [4]; on Histone deacetylase 1) was “inactive” each time.

The molecule `CCC/C=C/c1c(-c2ccccc2)nnn1[C@@H](Cc1ccccc1)C(=O)NO` yielded an IC50 against Histone deacetylase 8 of 0.464 µM.
